# Patent US20160038474A1, “COMPOSITIONS AND METHODS FOR THE MODULATION OF HEMOGLOBIN (S)” (GLOBAL BLOOD THERAPEUTICS, INC., priority 2013, published 2016)
# Legend:
# Format in all cases: in vivo
# [1] = Pharmacokinetics after single dose of GBT440 (FIG. 1), monkey
# From the text: (§1) FIG. 1 graphically illustrates the high oral bioavailability, sustained exposure and dramatic RBC partitioning following single dose of GBT440. Certain relevant pharmacokinetic parameters are tabulated below:
# (§2) FIG. 1 in parts A, B, and C graphically illustrates the high in vivo oral bioavailability, sustained exposure and the high RBC partitioning following single dose of GBT440.
# [2] = Pharmacokinetics after single dose of GBT440 (FIG. 1), dog
# From the text: as §1, §2
# [3] = Pharmacokinetics after single dose of GBT440 (FIG. 1), rat
# From the text: as §1, §2
compound,measurement,setting,value
CC(C)n1nccc1-c1ncccc1COc1cccc(O)c1C=O [GBT440],bioavailability,"[1]; in vivo, IV 1 mg/kg, PO 4.25 mg/kg, read-out: Oral bioavailability (% F)",36.1%
same,blood plasma ratio,[1]; whole blood and plasma,70.9
same,bioavailability,"[2]; in vivo, IV 1 mg/kg, PO 2.5 mg/kg, read-out: Oral bioavailability (% F)",36.6%
same,blood plasma ratio,[2]; whole blood and plasma,74.4
same,bioavailability,"[3]; in vivo, IV 1.6 mg/kg, PO 7.2 mg/kg, read-out: Oral bioavailability (% F)",59.8%
same,blood plasma ratio,[3]; whole blood and plasma,69
